Laboratory results: ChEMBL document CHEMBL1201862, “PubChem BioAssay data set” (2004)
Calls of active or inactive are those of the source.

How the values were obtained:
CAAX prenyl protease 2 [1] = target: T1, CAAX prenyl protease 2 (Homo sapiens, UniProt Q9Y256); test: human Rce1 protease inhibitors, dose response, biochemical, yeast membranes, quenched-peptide fluorescence, cherry-pick (AID 588849)
T1 sequence (Q9Y256 whole entry): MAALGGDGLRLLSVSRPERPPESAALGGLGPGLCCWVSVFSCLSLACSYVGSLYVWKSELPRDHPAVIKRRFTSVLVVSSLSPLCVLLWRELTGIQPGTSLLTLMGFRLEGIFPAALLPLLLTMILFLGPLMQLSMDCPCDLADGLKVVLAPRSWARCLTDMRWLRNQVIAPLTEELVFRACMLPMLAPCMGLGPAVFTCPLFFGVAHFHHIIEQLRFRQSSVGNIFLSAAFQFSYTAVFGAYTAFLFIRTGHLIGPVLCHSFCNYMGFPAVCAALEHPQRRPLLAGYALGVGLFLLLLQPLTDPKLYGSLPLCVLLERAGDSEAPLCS

[2] = target: Eukaryotic translation initiation factor 4E (Mus musculus, UniProt P63073); test: eIF4E–eIF4G protein interaction inhibitors, dose response, biochemical, TR-FRET (AID 855); format: functional;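 note: potency for disrupting eIF4E binding to eIF4GI seen as loss of FRET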
Sequence of Eukaryotic translation initiation factor 4E (P63073 whole entry): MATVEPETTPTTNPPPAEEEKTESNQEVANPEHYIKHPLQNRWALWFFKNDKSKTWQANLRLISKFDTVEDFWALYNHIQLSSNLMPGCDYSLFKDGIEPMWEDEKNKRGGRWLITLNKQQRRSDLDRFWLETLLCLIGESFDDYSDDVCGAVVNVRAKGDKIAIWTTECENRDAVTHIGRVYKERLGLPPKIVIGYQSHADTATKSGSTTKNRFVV

CAAX prenyl protease 2 [3] = target: T2, CAAX prenyl protease 2 (Saccharomyces cerevisiae S288c, UniProt Q03530); format: biochemical
T2 sequence (Q03530 whole entry): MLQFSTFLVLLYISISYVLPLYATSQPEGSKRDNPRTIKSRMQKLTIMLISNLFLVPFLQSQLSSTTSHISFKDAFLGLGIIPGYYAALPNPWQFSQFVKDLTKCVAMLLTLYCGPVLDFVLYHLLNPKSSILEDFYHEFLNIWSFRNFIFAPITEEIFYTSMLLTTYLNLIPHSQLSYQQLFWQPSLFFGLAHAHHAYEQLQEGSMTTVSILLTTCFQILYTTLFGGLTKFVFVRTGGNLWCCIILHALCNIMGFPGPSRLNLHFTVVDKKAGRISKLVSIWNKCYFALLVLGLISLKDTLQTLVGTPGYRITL

Streptokinase A = target: T3, Streptokinase A (Streptococcus pyogenes serotype M1, UniProt P10520); test: S. pyogenes streptokinase expression inhibitors, potency, dose response, plasminogen activation absorbance, OD405 (AID 1914); format: functional, Streptococcus pyogenes M1 GAS;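 note: secreted streptokinase activity via plasminogen activation per viability signal from cell pellet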
T3 sequence (P10520 whole entry): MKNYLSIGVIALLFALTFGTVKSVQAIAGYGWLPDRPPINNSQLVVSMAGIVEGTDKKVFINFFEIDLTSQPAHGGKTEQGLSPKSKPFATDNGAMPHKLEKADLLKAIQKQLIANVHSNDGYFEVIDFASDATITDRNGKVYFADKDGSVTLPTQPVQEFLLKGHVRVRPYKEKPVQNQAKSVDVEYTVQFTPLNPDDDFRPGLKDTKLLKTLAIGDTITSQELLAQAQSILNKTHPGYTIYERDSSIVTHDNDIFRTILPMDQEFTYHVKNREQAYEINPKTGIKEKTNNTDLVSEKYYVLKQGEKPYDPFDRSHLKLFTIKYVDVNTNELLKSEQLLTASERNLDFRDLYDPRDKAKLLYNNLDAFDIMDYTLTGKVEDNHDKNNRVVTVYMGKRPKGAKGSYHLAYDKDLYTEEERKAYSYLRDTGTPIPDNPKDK

[4] = THP-1 cell cytotoxicity, dose response, cytotoxicity control for non-replicating M. tuberculosis project (AID 489025); format: functional
[5] = system: Streptococcus sp. 'group A'; test: growth inhibition of control SK(-) GAS strain, dose response, counter-screen for streptokinase expression inhibitor project, luminescence, kanamycin, BacTiterGlo, confirmation (AID 1900); format: functional, organism-based
[6] = target: T4, Short transient receptor potential channel 4 (Mus musculus, UniProt Q9QUQ5); test: mouse TRPC4 channel inhibitors, dose response, cell-based, HEK293 TRPC4/mu-opioid, Fluo-4 calcium (AID 434942); format: functional;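 note: potency of inhibitors blocking the TRPC4 calcium response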
T4 sequence (Q9QUQ5 whole entry): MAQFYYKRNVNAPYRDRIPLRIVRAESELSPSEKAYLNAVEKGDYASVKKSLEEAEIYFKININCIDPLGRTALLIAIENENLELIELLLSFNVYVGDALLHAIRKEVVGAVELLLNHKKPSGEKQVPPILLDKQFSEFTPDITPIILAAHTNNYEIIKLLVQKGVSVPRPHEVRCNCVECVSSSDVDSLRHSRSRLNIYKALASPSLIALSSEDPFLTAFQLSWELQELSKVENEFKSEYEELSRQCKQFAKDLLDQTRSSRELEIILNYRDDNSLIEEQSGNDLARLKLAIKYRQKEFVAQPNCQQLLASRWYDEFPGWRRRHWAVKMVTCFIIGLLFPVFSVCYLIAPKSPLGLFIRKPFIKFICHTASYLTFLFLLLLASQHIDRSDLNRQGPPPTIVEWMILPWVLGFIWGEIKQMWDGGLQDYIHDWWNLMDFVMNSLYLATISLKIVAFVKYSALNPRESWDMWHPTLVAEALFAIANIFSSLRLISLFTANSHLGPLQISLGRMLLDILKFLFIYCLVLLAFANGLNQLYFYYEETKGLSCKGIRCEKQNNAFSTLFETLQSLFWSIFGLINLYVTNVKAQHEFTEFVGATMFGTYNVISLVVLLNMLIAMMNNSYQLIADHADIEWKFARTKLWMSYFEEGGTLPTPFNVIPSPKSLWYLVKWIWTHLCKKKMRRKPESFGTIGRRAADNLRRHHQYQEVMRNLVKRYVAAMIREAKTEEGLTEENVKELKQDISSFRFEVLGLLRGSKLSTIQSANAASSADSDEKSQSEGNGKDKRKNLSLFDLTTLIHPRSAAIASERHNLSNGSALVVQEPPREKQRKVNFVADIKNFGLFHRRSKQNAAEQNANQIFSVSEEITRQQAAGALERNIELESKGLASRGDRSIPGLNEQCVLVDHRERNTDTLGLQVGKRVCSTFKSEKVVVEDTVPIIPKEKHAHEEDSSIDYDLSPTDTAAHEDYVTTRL

Streptococcus = test: Group A Streptococcus viability loss, dose response, counter-screen for streptokinase expression inhibitor project, luminescence, BacTiterGlo (AID 1915); format: functional, organism-based;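 note: potency for reduction of bacterial viability or growth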
[7] = Vero E6 cell cytotoxicity, dose response, cytotoxicity control for non-replicating M. tuberculosis project, secondary assay (AID 492998); format: functional, VeroE6; details: Vero C1008
cells = format: functional
[8] = target: T4, Short transient receptor potential channel 4; test: mouse TRPC4 channel activators, dose response, cell-based, HEK293 TRPC4/mu-opioid, Fluo-4 calcium (AID 434937); format: functional
[9] = target: T5, Type-1 angiotensin II receptor (Homo sapiens, UniProt P30556); test: AT1 receptor antagonists, dose response, selectivity assay for APJ receptor antagonist project, cell-based, uHTS hits (AID 463214); format: functional;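 note: antagonist potency against angiotensin II stimulated AT1 response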
T5 sequence (P30556 whole entry): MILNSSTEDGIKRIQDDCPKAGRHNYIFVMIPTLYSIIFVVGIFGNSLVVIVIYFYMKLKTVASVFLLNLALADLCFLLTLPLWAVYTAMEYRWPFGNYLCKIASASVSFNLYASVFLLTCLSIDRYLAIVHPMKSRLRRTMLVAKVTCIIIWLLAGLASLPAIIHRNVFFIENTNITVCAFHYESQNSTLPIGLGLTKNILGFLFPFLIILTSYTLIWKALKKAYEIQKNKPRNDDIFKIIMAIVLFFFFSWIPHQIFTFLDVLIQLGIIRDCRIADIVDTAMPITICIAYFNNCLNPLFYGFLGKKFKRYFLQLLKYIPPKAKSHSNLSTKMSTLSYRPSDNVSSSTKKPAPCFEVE

Beta-galactosidase = Beta-galactosidase (Escherichia coli, UniProt Q8VNN2); test: PubChem AID 485352; format: functional
Sequence of Beta-galactosidase (Q8VNN2 whole entry): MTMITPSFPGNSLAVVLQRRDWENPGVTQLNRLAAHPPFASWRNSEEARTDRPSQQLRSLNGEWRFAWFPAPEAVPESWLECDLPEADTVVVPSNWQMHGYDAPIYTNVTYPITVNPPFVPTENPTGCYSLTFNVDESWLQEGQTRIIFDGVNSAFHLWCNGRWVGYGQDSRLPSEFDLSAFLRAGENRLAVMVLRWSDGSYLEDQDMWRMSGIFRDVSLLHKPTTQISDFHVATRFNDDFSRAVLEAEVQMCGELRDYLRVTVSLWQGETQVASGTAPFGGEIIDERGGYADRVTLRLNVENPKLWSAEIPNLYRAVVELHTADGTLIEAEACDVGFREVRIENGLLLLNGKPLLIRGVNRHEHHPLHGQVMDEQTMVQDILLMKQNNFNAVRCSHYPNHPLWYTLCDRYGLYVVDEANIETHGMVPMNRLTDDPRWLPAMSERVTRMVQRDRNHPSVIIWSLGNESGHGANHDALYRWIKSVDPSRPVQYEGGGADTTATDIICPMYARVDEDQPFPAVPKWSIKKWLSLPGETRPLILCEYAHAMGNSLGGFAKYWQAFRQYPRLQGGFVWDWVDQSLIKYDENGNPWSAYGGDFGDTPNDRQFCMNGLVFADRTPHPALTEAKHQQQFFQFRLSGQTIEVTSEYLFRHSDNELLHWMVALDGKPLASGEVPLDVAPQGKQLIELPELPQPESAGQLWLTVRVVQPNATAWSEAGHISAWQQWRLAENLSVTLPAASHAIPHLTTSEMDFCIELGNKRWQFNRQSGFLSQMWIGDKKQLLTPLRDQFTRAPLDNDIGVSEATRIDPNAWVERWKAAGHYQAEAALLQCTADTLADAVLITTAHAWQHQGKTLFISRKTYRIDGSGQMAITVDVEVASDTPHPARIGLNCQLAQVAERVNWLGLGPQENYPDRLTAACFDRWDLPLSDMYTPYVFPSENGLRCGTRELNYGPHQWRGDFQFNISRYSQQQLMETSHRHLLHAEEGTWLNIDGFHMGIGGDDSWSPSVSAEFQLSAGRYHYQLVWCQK

INS1 = test: beta cell apoptosis inhibitors, cytokine rescue, dose response, luminescence, retest (AID 449756); format: functional, cell-based; details: Rattus norvegicus;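 note: cell death triggered by IL-1 beta plus TNF-alpha plus IFN-gamma mixture; protective hits raise ATP signal compared with cytokine alone wells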
[10] = target: DNA dC->dU-editing enzyme APOBEC-3G (Homo sapiens, UniProt Q9HC16); test: Dose Response confirmation of small molecule APOBEC3G DNA Deaminase Inhibitors via a fluorescence-based single-stranded DNA deaminase assay. [Related pubchem assays (depositor defined):AID493012, AID493028]; format: functional
Sequence of DNA dC->dU-editing enzyme APOBEC-3G (Q9HC16 whole entry): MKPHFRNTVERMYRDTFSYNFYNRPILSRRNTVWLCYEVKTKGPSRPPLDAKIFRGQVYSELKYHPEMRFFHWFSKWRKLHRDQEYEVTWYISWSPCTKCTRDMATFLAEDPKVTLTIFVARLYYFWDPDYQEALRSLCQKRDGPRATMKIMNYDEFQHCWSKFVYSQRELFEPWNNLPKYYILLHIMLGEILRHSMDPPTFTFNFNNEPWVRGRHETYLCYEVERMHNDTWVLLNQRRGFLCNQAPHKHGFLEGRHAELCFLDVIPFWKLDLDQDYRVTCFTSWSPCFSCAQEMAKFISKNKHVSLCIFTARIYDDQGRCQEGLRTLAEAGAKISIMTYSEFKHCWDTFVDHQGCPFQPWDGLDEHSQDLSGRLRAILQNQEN

[11] = inhibitors of intracellular T. cruzi replication, confirmation, NIH3T3 host cells, beta-gal luminescence (AID 2044); format: functional, cell-based;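 note: intracellular parasites grown in NIH/3T3 mouse fibroblasts as host cells; luminescent beta-galactosidase reporter signal from transgenic T. cruzi replicating inside host cells; inhibitors lower the luminescence signal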
[12] = cytotoxicity toward NIH3T3 fibroblasts, dose response, counter-screen, cell-based, ATP luminescence, mouse fibroblasts (AID 2010); format: functional;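 note: cells exposed to compound for about 90 hours before reading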
[13] = target: G-protein coupled receptor 55 (Homo sapiens, UniProt Q9Y2T6); test: GPR55 agonists via beta-arrestin recruitment, primary screen, imaging, U2OS cells, beta-arrestin-GFP redistribution (AID 1961); format: functional
Sequence of G-protein coupled receptor 55 (Q9Y2T6 whole entry): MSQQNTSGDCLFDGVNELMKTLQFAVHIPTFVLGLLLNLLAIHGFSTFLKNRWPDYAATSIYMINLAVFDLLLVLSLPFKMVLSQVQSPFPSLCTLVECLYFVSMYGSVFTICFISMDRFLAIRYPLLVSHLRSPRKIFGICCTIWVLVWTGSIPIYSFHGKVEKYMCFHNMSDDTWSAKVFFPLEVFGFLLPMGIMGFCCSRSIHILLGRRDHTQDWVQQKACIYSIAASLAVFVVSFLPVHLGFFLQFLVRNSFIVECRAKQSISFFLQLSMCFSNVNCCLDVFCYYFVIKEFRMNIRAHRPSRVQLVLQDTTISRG

[14] = target: T6, Heat shock factor protein 1 (Mus musculus, UniProt P38532); test: HSF1 potentiators in luciferase reporter cells, confirmation, cell-based, NIH3T3, luminescence, dose retest (AID 435004); format: functional;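 note: stress induced by proteasome inhibitor MG132 added 30 min after compound; luciferase reporter driven by HSF1 response element in NIH3T3 cells; actives raise luminescence as potentiators of the MG132 stress response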
T6 sequence (P38532 whole entry): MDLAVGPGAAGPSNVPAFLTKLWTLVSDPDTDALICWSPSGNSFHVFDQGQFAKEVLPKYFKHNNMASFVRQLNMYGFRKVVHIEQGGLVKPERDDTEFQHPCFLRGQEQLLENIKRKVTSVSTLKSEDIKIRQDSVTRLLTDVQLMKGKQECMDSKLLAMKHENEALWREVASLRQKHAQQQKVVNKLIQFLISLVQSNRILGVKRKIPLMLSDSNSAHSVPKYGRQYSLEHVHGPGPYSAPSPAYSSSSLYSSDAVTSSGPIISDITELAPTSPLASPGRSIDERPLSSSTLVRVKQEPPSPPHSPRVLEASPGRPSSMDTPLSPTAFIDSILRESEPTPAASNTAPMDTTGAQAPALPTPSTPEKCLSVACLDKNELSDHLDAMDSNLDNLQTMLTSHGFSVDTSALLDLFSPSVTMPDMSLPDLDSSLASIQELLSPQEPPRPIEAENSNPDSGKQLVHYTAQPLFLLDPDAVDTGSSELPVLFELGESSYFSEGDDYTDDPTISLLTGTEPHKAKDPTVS

[15] = HEp-2 cell cytotoxicity, dose response, cytotoxicity control for RSV inhibitor project, HTS (AID 2410); format: functional; details: human respiratory syncytial virus
[16] = target: T7, High affinity choline transporter 1 (Homo sapiens, UniProt Q9GZV3); test: CHT inhibitors, dose response, cell-based, 5-point CRC, membrane potential dye (AID 504840); format: functional
T7 sequence (Q9GZV3 whole entry): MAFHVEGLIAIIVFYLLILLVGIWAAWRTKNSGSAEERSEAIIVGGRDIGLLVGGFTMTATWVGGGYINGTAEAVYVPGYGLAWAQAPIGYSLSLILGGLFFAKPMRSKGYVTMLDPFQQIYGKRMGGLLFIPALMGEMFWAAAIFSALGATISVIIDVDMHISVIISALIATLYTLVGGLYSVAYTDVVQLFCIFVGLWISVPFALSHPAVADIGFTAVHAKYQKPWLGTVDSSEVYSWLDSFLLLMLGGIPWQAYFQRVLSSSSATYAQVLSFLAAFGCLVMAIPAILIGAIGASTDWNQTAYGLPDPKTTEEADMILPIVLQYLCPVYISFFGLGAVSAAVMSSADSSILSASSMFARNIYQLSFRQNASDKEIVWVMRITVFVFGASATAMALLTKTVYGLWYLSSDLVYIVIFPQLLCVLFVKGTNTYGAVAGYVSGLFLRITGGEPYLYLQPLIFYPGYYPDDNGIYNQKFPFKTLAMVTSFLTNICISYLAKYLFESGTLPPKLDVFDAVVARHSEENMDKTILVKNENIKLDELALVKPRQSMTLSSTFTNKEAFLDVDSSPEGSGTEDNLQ

[17] = Vero cell cytotoxicity, dose response, cytotoxicity control for Vif-APOBEC3G degradation inhibitor project, Vero cells (AID 1117358); format: functional; details: Human immunodeficiency virus 1, Vero

CC(/C=N\NC(=O)CN1CCN(S(=O)(=O)c2ccc(C)cc2)CC1)=C\c1ccccc1
AC50 (CAAX prenyl protease 2 [1]): 59.3 µM (active)
IC50 [2]: > 64 µM (inactive)
AC50 (CAAX prenyl protease 2 [3]): 4.3 µM (active)

Cc1ccc(C(=O)Nc2nnc(C3=COCCO3)o2)cc1C
EC50 (Streptokinase A): > 150 µM (not active)
CC50 [4]: > 40 µM (active)
EC50 [5]: 5.17 µM (active)
EC50 [6]: 0.421 µM (active)
EC50 (Streptococcus): 15.5 µM (active)
CC50 [7]: > 20 µM (active)
IC50 (cells): 2.03 µM (active)

CCN1CCN(c2ccc(S(=O)(=O)N3CCOCC3)cc2NC(=O)c2ccccc2SC)CC1
EC50 [8]: 0.421 µM (active)

CNS(=O)(=O)c1cccc(C(=O)OCC(=O)c2ccc(S(=O)(=O)N3CCCCC3)cc2)c1
IC50 [9]: 18.8 µM (active)
EC50 (Beta-galactosidase): > 40 µM (inactive)

Cc1cccc2c1NC(=O)C2=Nc1ccc(Cl)cc1
IC50 [9]: 27.9 µM (not active)
EC50 (Beta-galactosidase): > 40 µM (inactive)

COc1cc2ccccc2cc1C(=O)NCC(c1cccs1)N(C)C (stereo not drawn)
EC50 [8]: 0.944 µM (active)

O=C(Nc1nc(-c2ccccn2)cs1)Nc1ccc(F)cc1F
AC50 (INS1): 3.4 µM (active)
EC50 [5]: 1.16 µM (active)
IC50 [10]: 65.9 µM (active)
IC50 [9]: 18.8 µM (active)
EC50 (Beta-galactosidase): > 40 µM (inactive)
EC50 (Streptococcus): 2.33 µM (active)
EC50 [11]: 0.9 µM (active)
EC50 [12]: 8.78 µM (active)

CCc1ccc(Nc2n[n+](-c3ccccc3)c(/C=C/c3ccccc3)s2)cc1
AC50 (CAAX prenyl protease 2 [1]): 23.8 µM (active)
EC50 [13]: 1.59 µM (active)
AC50 (CAAX prenyl protease 2 [3]): 0.634 µM (active)

CCOC(=O)C(=Cc1c[nH]c2ccc(S(=O)(=O)N(C)C)cc12)C(=O)OCC
EC50 [14]: 45.3 µM (active)
CC50 [15]: 13.4 µM (active)
IC50 [16]: 15.8 µM (active)

CN1CCN(S(=O)(=O)c2ccc(NC(=O)Nc3cccc(Cl)c3)cc2)CC1
CC50 [17]: > 40 µM (active)
IC50 [16]: 13.2 µM (active)

NC(=O)C1CCCN(CCc2ccccc2)C1 (stereo not drawn)
EC50 [8]: 0.06 µM (active)
